One may read the MIC as the lowest concentration found to suppress growth. Broadly, the CC50 is the concentration that lowers cell viability or growth by half. Read a low CC50 as harm at low concentration.

One data set deals with H. pylori strain 26695. In words: MIC determination, liquid microdilution, H. pylori. Format: cell-based. Conditions: Helicobacter pylori, 26695, 27 h, read-out: MIC H. pylori. (In general: Dilution methods test growth across graded concentrations, often in twofold steps.)
The test system of the next data set is S. epidermidis. Description: MIC determination, liquid microdilution, S. epidermidis. Type of data set: cell-based. Conditions: Staphylococcus epidermidis, read-out: MIC S. epidermidis.
The test system of another data set is C. jejuni strain H840. Description: MIC determination, liquid microdilution, C. jejuni. Format: cell-based. The note with it: Campylobacter jejuni, H840, 27 h, read-out: MIC C. jejuni.
Data set [1] can be described thus: Human foreskin cell toxicity. Format: cell-based. The note with it: human.
The next data set deals with S. aureus (MRSA). Description: MIC determination, liquid microdilution, S. aureus. Type of data set: cell-based. Conditions: Staphylococcus aureus, read-out: MIC S. aureus (MRSA).
Another data set relates to H. pylori PFOR enzyme. Description: Direct PFOR enzyme assay. Format: biochemical. Conditions: [Drug] = 40 μM.
For another data set, the system named is C. difficile VPI 10463. In words: MIC determination, agar dilution, C. difficile. Type of data set: cell-based, Clostridium difficile. The note with it: Clostridioides difficile, VPI10463, 18 h, read-out: MIC C. difficile. For orientation: In agar dilution the substance is mixed into plates at graded concentrations.

In brackets after ≈: the same amount, converted by molar mass. Marks after values point to notes of the source that are not given here.

On to `O=C(Nc1ncc([N+](=O)[O-])s1)c1ccc(-c2cccc(C(F)(F)F)c2)o1` [Analogue 68, N-(5-Nitrothiazol-2-yl)-5-(3-(trifluoromethyl)phenyl)furan-2-carboxamide], for which the MIC turned out to be 1.1 µM (≈ 0.422 µg/mL) in the data set with H. pylori strain 26695, 5.7 µM (≈ 2.18 µg/mL) in the data set with S. epidermidis, 8.5 µM (≈ 3.26 µg/mL) in the data set with C. jejuni strain H840 and 11.4 µM (≈ 4.37 µg/mL) in the data set with S. aureus (MRSA). The 50% cytotoxic concentration (CC50) at 48 h in data set [1] (human foreskin cells) is over 41.7 µM.

Consider `O=C(Nc1ncc([N+](=O)[O-])s1)c1cccs1` [Analogue 76, N-(5-Nitrothiazol-2-yl)thiophene-2-carboxamide], for which the “PFOR Inhibition” value with H. pylori PFOR enzyme is given as 56 ± 6 ^b %. Moreover, the minimum inhibitory concentration (MIC) with S. epidermidis was determined as 31.3 µM (≈ 7.99 µg/mL); with C. difficile VPI 10463 it was 1.5 µM (≈ 0.383 µg/mL). In data set [1] (human foreskin cells), the CC50 at 48 h was over 62.7 µM.

`O=C(Nc1ncc([N+](=O)[O-])s1)c1ccc([N+](=O)[O-])o1` [Analogue 64, 5-Nitro-N-(5-nitrothiazol-2-yl)furan-2-carboxamide]: the minimum inhibitory concentration (MIC) in the data set on H. pylori strain 26695 stood at 21.1 µM (≈ 6 µg/mL); in the data set with S. epidermidis, 28.1 µM (≈ 7.99 µg/mL); in the data set on C. jejuni strain H840, 7 µM (≈ 1.99 µg/mL); in the data set with S. aureus (MRSA), 113 µM (≈ 32 µg/mL). In data set [1] (human foreskin cells), this molecule returned a CC50 at 48 h of over 56.3 µM.

For `O=C(Nc1ncc([N+](=O)[O-])s1)c1cccc([N+](=O)[O-])c1` [Analogue 26, 3-Nitro-N-(5-nitrothiazol-2-yl)benzamide], the minimal inhibitory concentration (MIC) turned out to be 1.3 µM (≈ 0.383 µg/mL) with H. pylori strain 26695, 10.2 µM (≈ 3 µg/mL) with S. epidermidis, 27.2 µM (≈ 8 µg/mL) in the data set with C. jejuni strain H840 and 10.2 µM (≈ 3 µg/mL) with S. aureus (MRSA). The molecule further showed a CC50 at 48 h in data set [1] of 27.2 µM.

With `O=C(Nc1ncc([N+](=O)[O-])s1)c1cccc(C(F)(F)F)c1Cl` [Analogue 40, 2-Chloro-N-(5-nitrothiazol-2-yl)-3-(trifluoromethyl)benzamide], the figures for the MIC in the data set with H. pylori strain 26695, with S. epidermidis and with S. aureus (MRSA) were 0.9 µM (≈ 0.317 µg/mL), 11.4 µM (≈ 4.01 µg/mL) and 11.4 µM (≈ 4.01 µg/mL), respectively. The molecule further displayed a CC50 at 48 h in data set [1] (human foreskin cells) of over 45.5 µM.

Turning to `O=C(Nc1ncc([N+](=O)[O-])s1)c1cccc(OC(F)(F)F)c1` [Analogue 31, N-(5-Nitrothiazol-2-yl)-3-(trifluoromethoxy)benzamide], the MIC in the data set with H. pylori strain 26695 stood at 1.1 µM (≈ 0.367 µg/mL); in the data set with S. epidermidis, 12 µM (≈ 4 µg/mL); in the data set on C. jejuni strain H840, 9 µM (≈ 3 µg/mL); with S. aureus (MRSA), 6 µM (≈ 2 µg/mL). The same molecule came in with a cytotoxic concentration (CC50) at 48 h in data set [1] (human foreskin cells) of over 48 µM.

With `O=C(Nc1ncc([N+](=O)[O-])s1)c1sc2cc(F)ccc2c1Cl` [Analogue 86, 3-Chloro-6-fluoro-N-(5-nitrothiazol-2-yl)benzo[b]thiophene-2-carboxamide], the MIC in the data set on H. pylori strain 26695 came out at 1 µM (≈ 0.358 µg/mL); in the data set on S. epidermidis, 5.6 µM (≈ 2 µg/mL); in the data set on C. jejuni strain H840, 5.6 µM (≈ 2 µg/mL); in the data set on S. aureus (MRSA), 2.1 µM (≈ 0.751 µg/mL). The molecule also returned a 50% cytotoxic concentration (CC50) at 48 h in data set [1] (human foreskin cells) of 33.5 µM.

As for `O=C(Nc1ncc([N+](=O)[O-])s1)c1cc2ccccc2s1` [Analogue 84, N-(5-Nitrothiazol-2-yl)benzo[b]thiophene-2-carboxamide], the MIC in the data set with H. pylori strain 26695 is 2.5 µM (≈ 0.763 µg/mL); with S. epidermidis, 13.1 µM (≈ 4 µg/mL); in the data set on C. jejuni strain H840, 9.8 µM (≈ 2.99 µg/mL); in the data set on S. aureus (MRSA), 6.6 µM (≈ 2.02 µg/mL). The 50% cytotoxic concentration (CC50) at 48 h in data set [1] (human foreskin cells) was over 52.6 µM.

For `O=C(Nc1ncc([N+](=O)[O-])s1)c1sc2ccccc2c1Cl` [Analogue 85, 3-Chloro-N-(5-nitrothiazol-2-yl)benzo[b]thiophene-2-carboxamide], the cytotoxic concentration (CC50) at 48 h in data set [1] (human foreskin cells) is over 47.1 µM.

In the case of `O=C(Nc1ncc([N+](=O)[O-])s1)c1ccoc1` [Analogue 60, N-(5-Nitrothiazol-2-yl)furan-3-carboxamide], the “PFOR Inhibition” value in the data set with H. pylori PFOR enzyme is given as 58 ± 2 ^b %. Besides, the figures for the minimal inhibitory concentration (MIC) with S. epidermidis and with C. difficile VPI 10463 were 33.4 µM (≈ 7.99 µg/mL) and 1.7 µM (≈ 0.407 µg/mL), respectively. The molecule also gave a CC50 at 48 h in data set [1] (human foreskin cells) of over 66.9 µM.

For the molecule `O=C(Nc1ncc([N+](=O)[O-])s1)c1ccc(F)cc1` [Analogue 8, 4-Fluoro-N-(5-nitrothiazol-2-yl)benzamide], the MIC in the data set on H. pylori strain 26695 was found to be 0.9 µM (≈ 0.241 µg/mL); with C. jejuni strain H840, 2.8 µM (≈ 0.748 µg/mL); with C. difficile VPI 10463, 3.3 µM (≈ 0.882 µg/mL). In the data set on H. pylori PFOR enzyme, the “PFOR Inhibition” value is 85 ^b %. Moreover, the CC50 at 48 h in data set [1] (human foreskin cells) was found to be 29.9 µM.

`CC(=O)Nc1ncc([N+](=O)[O-])s1` [Analogue 48, N-(5-Nitrothiazol-2-yl)acetamide]: the MIC is 0.7 µM (≈ 0.131 µg/mL) in the data set on H. pylori strain 26695, 21.4 µM (≈ 4.01 µg/mL) with S. epidermidis, 10.7 µM (≈ 2 µg/mL) with C. jejuni strain H840 and 171 µM (≈ 32 µg/mL) with S. aureus (MRSA). This molecule yielded a cytotoxic concentration (CC50) at 48 h in data set [1] (human foreskin cells) of over 85.5 µM.

For the origin of these results see publication PMC3089805 (Chemmedchem, 2010).
